{
  "source": "patent US9220814B2",
  "about": "“Broad-spectrum antimicrobial compositions based on combinations of taurolidine and protamine and medical devices containing such compositions” (Ethicon, Inc., priority 2011, dated 2015)",
  "key": {"[1]": {"system": "Staphylococcus aureus ACTT 6538", "assay": "in vitro bacteria attachment assay on coated mesh discs in SST medium", "assay_type": "cell-based", "settings": "for Log reduction: 4 hours SST 37° C.", "experimental": "Taurolidine was dissolved at 4% wt./vol. in a 70% acetone 30% water vol./vol. mixture. Protamine sulfate was dissolved at 10% wt./vol. in water under warming. 50 μl of the taurolidine (TU) solution and 20 μl of the protamine (PS) solution were applied to each mesh disk using a pipette and allowed to dry at 50° C. until the majority of the liquid was gone and then stored under vacuum. First the taurolidine solution was applied, and then immediately thereafter the protamine sulfate solution was applied. The in vitro bacteria attachment assay was developed for its utility of indicating biofilm prevention potential of prototype mesh. Since bacterial attachment to a surface is the first step of biofilm formation, a surface treatment that inhibits bacterial attachment would reduce the chance of subsequent biofilm formation. The assay was conducted in SST (Serum Saline TSB) medium to mimic in vivo and clinical conditions. The formulation of SST is Tryptic Soy Broth (TSB):serum:saline in the ratio of 1:2:7. Each test article was incubated in SST inoculated with Staphylococcus aureus ACTT 6538 or Escherichia coli ATCC 25922 at about 6 Log CFU/ml. After incubation with rotation of 60 rpm for 4 hours at 37° C., the mesh discs were washed in saline 3 times to remove unattached bacteria. Bacteria attached to the mesh were collected by sonication in saline with neutralizing agent. Viable bacteria populations were measured by plate count on TSA (Tryptic Soy agar) medium contain neutralizing agents. The use of neutralizing agents in bacteria suspension and plate count medium was to eliminate any carry over antimicrobial effect from the coating. The plates were incubated at 37° C. for 24 hours. The number of attached viable bacteria was reported as CFU/disc. In accordance with Example 1, surgical mesh discs coated with different stand alone and combinations of taurolidine+protamine sulfate were prepared. Protocols of mesh coating and in vitro attachment assay as in Example 1 were used for this Example 3."}, "[2]": {"system": "Escherichia coli ATCC 25922", "assay": "in vitro bacteria attachment assay on coated mesh discs in SST medium", "assay_type": "cell-based", "settings": "treated mesh surface, serum containing media", "experimental": "Taurolidine was dissolved at 4% wt./vol. in a 70% acetone 30% water vol./vol. mixture. Protamine sulfate was dissolved at 10% wt./vol. in water under warming. 50 μl of the taurolidine (TU) solution and 20 μl of the protamine (PS) solution were applied to each mesh disk using a pipette and allowed to dry at 50° C. until the majority of the liquid was gone and then stored under vacuum. First the taurolidine solution was applied, and then immediately thereafter the protamine sulfate solution was applied. The in vitro bacteria attachment assay was developed for its utility of indicating biofilm prevention potential of prototype mesh. Since bacterial attachment to a surface is the first step of biofilm formation, a surface treatment that inhibits bacterial attachment would reduce the chance of subsequent biofilm formation. The assay was conducted in SST (Serum Saline TSB) medium to mimic in vivo and clinical conditions. The formulation of SST is Tryptic Soy Broth (TSB):serum:saline in the ratio of 1:2:7. Each test article was incubated in SST inoculated with Staphylococcus aureus ACTT 6538 or Escherichia coli ATCC 25922 at about 6 Log CFU/ml. […] Viable bacteria populations were measured by plate count on TSA (Tryptic Soy agar) medium contain neutralizing agents. […]"}, "S. aureus ACTT 6538": {"system": "S. aureus ACTT 6538", "assay": "bactericidal two-dimensional concentration matrix of TU and PS in SST medium, plate count", "assay_type": "cell-based, Staphylococcus aureus", "settings": "TU alone at 100 ppm, 37° C. 24 hours", "experimental": "Concentration gradients of TU and PS were diluted in an SST medium and made into a two-dimensional matrix. Bacteria of interest were inoculated to the matrix at about 10e6 CFU/ml. S. aureus ACTT 6538 or E. coli ATCC 25922 were used for this Example 2. After incubation at 37° C. for 24 hours, viable bacteria populations were measured by plate count. Log reduction (LR) was used as the end point for efficacy and was defined as: Log CFU/ml of untreated control−Log CFU/ml of treated. Synergistic index (SI) was defined as LR of a given combination−sum of LR of single component at the same concentration as in the combination. SI=0 indicated additive effect, SI=1, indicated 90% more bacterial cedality, SI=2 indicated 99% more bacterial cedality, SI=3, indicated 99.9% more bacterial cedality, etc., by combination than its stand alone compositions at the same usage, thus synergy."}, "[3]": {"system": "Staphylococcus aureus ACTT 6538", "assay": "in vitro MBC (minimum bactericidal concentration) study of PS:TU ratios in SST medium", "assay_type": "cell-based", "experimental": "The range of the ratios of the components of the synergistic antimicrobial compositions of the present invention was obtained by an in vitro MBC (minimum bactericidal concentration) study. The study was conducted in SST medium inoculated with about 10^6 CFU/ml Staphylococcus aureus ACTT 6538. In vitro efficacy was evaluated for different ratios of PS and TU combinations along with the stand alone (i.e., individual) compositions at the same concentrations as in the combination composition. After incubation at 37° C. for 24 hours, viable bacteria populations were measured by plate count. Log reduction (LR) was used as the end point for efficacy and was defined as Log CFU/ml of untreated control−Log CFU/ml of treated. The synergistic index (SI) was defined as the LR of a given combination−sum of LR of single component at the same concentration as in the combination. An SI=0 indicated additive effect, SI=1, indicated 90% more bacterial cedality, SI=2 indicated 99% more bacterial cedality, SI=3, indicated 99.9% more bacterial cedality, etc., by a combination than its stand alone components at the same usage, thus synergy."}, "[4]": {"settings": "cited from earlier work"}},
  "data": [
    {"smiles": "O=S1(=O)CCN(CN2CCS(=O)(=O)NC2)CN1", "note": "[TU, bis(1,1-dioxoperhydro-1,2,4-thiadiazinyl-4)-methane]", "values": [
      {"measurement": "Log reduction", "setting": "[1]; TU 500 μg/disc alone", "result": 1},
      {"measurement": "Log reduction", "setting": "[1]; TU 1000 μg/disc alone", "result": 0.8},
      {"measurement": "Log reduction", "setting": "[1]; TU 2000 μg/disc alone", "result": 2},
      {"measurement": "inhibition of attachment by S. aureus (in words)", "setting": "[1]; treated mesh surface, serum containing media", "result": "less inhibition than the combination"},
      {"measurement": "inhibition of attachment by E. coli (in words)", "setting": "[2]", "result": "less inhibition than the combination"},
      {"measurement": "Log reduction (LR)", "setting": "S. aureus ACTT 6538", "result": 0},
      {"measurement": "LR-TU", "setting": "[3]; TU alone at same concentration as in PS:TU 1:1", "result": 0},
      {"measurement": "LR-TU", "setting": "[3]; TU alone at same concentration as in PS:TU 1:10", "result": 0},
      {"measurement": "LR-TU", "setting": "[3]; TU alone at same concentration as in PS:TU 1:50", "result": 0},
      {"measurement": "LR-TU", "setting": "[3]; TU alone at same concentration as in PS:TU 1:100", "result": 0},
      {"measurement": "LR-TU", "setting": "[3]; TU alone at same concentration as in PS:TU 1:200", "result": 0},
      {"measurement": "LR-TU", "setting": "[3]; TU alone at same concentration as in PS:TU 10:1", "result": 0},
      {"measurement": "LR-TU", "setting": "[3]; TU alone at same concentration as in PS:TU 50:1", "result": 0},
      {"measurement": "safe and well tolerated cumulative dose", "setting": "[4]; cumulative doses", "result": "exceeding 300 g"},
      {"measurement": "safe and well tolerated systemic dose", "setting": "[4]; systemic doses", "result": "exceeding 40 g/day"}
    ]}
  ]
}
